We go through 14 compounds from PubChem BioAssay (NCI).

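Briefly, cells in 96-well plates were exposed to five compound concentrations for 48 h, and endpoints were estimated by linear interpolation. TGI marks complete inhibition of growth.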

Test systems include 786-0 renal; NCI-H522 lung; T-47D breast; SF-295 CNS; NCI-H226 lung; IGROV1 ovarian; SW-620 colon; OVCAR-5 ovarian; HS 578T breast; MDA-MB-231 breast.
Holding throughout (assay): NCI tumour cell line growth inhibition, 48 h

Take `C[C@@H]1OCC(O)C([C@H]2OC(c3ccccc3)=N[C@H]2CO)O1` (stereo not given in full): the TGI with 786-0 renal, in the assay on NCI-H522 lung, in the assay on T-47D breast, in the assay with SF-295 CNS, in the assay on NCI-H226 lung and with IGROV1 ovarian was greater than 100 µM throughout. For the same compound, the TGI in the assay with SW-620 colon, with OVCAR-5 ovarian, in the assay on HS 578T breast and in the assay with MDA-MB-231 breast was greater than 100 µM throughout.
As to `OC(O)(C(F)(F)F)C(F)(F)F`, the TGI in the assay with 786-0 renal, with NCI-H522 lung, in the assay on T-47D breast, in the assay on SF-295 CNS, with NCI-H226 lung and with IGROV1 ovarian was greater than 100 µM each time. For the same compound, the TGI in the assay with SW-620 colon, with OVCAR-5 ovarian, in the assay on HS 578T breast and with MDA-MB-231 breast was greater than 100 µM each time.
`c1ccc2c(c1)c1c3n2-c2cc(on2)C3CCC1` (stereo not given): the TGI with 786-0 renal, in the assay on NCI-H522 lung, in the assay with T-47D breast, in the assay on SF-295 CNS, in the assay with NCI-H226 lung and in the assay on IGROV1 ovarian was greater than 100 µM each time. Moreover, the TGI in the assay with SW-620 colon, with OVCAR-5 ovarian, in the assay with HS 578T breast and in the assay with MDA-MB-231 breast was greater than 100 µM throughout.
Take `COC(=O)C1=C(C)NC2(C)OC(C)(O)C(C(C)=O)C12C(C)=O` (stereo not given): the TGI is greater than 100 µM with 786-0 renal; greater than 100 µM with NCI-H522 lung; greater than 100 µM with T-47D breast; greater than 100 µM in the assay with SF-295 CNS; 53.1 µM in the assay with NCI-H226 lung; greater than 100 µM with IGROV1 ovarian. Moreover, the TGI was greater than 100 µM in the assay on SW-620 colon, greater than 100 µM in the assay on OVCAR-5 ovarian, 65.1 µM with HS 578T breast and greater than 100 µM with MDA-MB-231 breast.
With `C=C1C(=O)O[C@H]2C3C(=C(C)CC[C@@H]12)C(=O)[C@@H]1OC31C` (stereo not given in full), the TGI with 786-0 renal worked out at 3.26 µM; with NCI-H522 lung it was 2.91 µM; in the assay with T-47D breast, 3.96 µM; in the assay with SF-295 CNS, 27.3 µM; in the assay on NCI-H226 lung, 20.5 µM; in the assay with IGROV1 ovarian, 11.8 µM. The TGI is 2.6 µM in the assay with SW-620 colon, 23.3 µM with OVCAR-5 ovarian, 9.8 µM in the assay with HS 578T breast and 8.08 µM in the assay with MDA-MB-231 breast.
`N#Cc1c(-c2ccc(Cl)cc2)cc(-c2nc3ccccc3[nH]2)nc1N`: the TGI in the assay with 786-0 renal was found to be 23.3 µM; with NCI-H522 lung it was 35.1 µM; with T-47D breast it was 19.4 µM; in the assay with SF-295 CNS, 49.1 µM; in the assay with NCI-H226 lung, 28 µM; with IGROV1 ovarian it was 22.2 µM. Moreover, the TGI with SW-620 colon came to 42.6 µM; in the assay on OVCAR-5 ovarian, 43.4 µM; in the assay on HS 578T breast, 73.3 µM; in the assay with MDA-MB-231 breast it was 26.8 µM.
On to `COc1ccc(C2=NNC(=O)c3ccccc3N2c2nc(-c3cccs3)nc3ccc(Br)cc23)cc1`, for which the TGI is 82 µM with 786-0 renal; greater than 100 µM in the assay on NCI-H522 lung; greater than 100 µM with T-47D breast; 55.1 µM in the assay with SF-295 CNS; 73.7 µM in the assay with NCI-H226 lung; greater than 100 µM in the assay on IGROV1 ovarian. Also, the TGI in the assay on SW-620 colon, with OVCAR-5 ovarian, in the assay with HS 578T breast and in the assay on MDA-MB-231 breast was greater than 100 µM throughout.
Regarding `C/C(=C\CNc1nc(Cl)nc2nc[nH]c12)CO`, the TGI with 786-0 renal, with NCI-H522 lung, in the assay on T-47D breast, in the assay with SF-295 CNS, in the assay with NCI-H226 lung and in the assay with IGROV1 ovarian was greater than 100 µM throughout. For the same compound, the TGI in the assay with SW-620 colon, in the assay with OVCAR-5 ovarian, in the assay on HS 578T breast and with MDA-MB-231 breast was greater than 100 µM in each case.
For the compound `Cn1c(=O)c2sc3cc4c(cc3c2c2ccccc21)sc1c(=O)n(C)c2ccccc2c14`, the TGI was greater than 100 µM with 786-0 renal; greater than 100 µM with NCI-H522 lung; greater than 100 µM in the assay with T-47D breast; 42.6 µM with SF-295 CNS; greater than 100 µM with NCI-H226 lung; greater than 100 µM with IGROV1 ovarian. Also, the TGI was greater than 100 µM with SW-620 colon, greater than 100 µM in the assay on OVCAR-5 ovarian, greater than 100 µM in the assay on HS 578T breast and 36.8 µM in the assay with MDA-MB-231 breast.
With `COC1=CC(=O)c2c(cc(COP(=O)(N(C)CCBr)N(C)CCBr)n2C)C1=O`, the TGI in the assay with 786-0 renal was determined as 2.87 µM; in the assay with NCI-H522 lung, 2.15 µM; in the assay on T-47D breast, 33 µM; with SF-295 CNS, 3.62 µM; in the assay with NCI-H226 lung, 1.43 µM; in the assay with IGROV1 ovarian it was 19.2 µM. Besides, the TGI was 7.58 µM in the assay on SW-620 colon, 4.35 µM in the assay with OVCAR-5 ovarian, 5.04 µM in the assay on HS 578T breast and 15.3 µM in the assay on MDA-MB-231 breast.
In the case of `COC(=O)/C=C\C(C#N)(C#N)N=Cc1ccsc1`, the TGI was 3.02 µM with 786-0 renal; 1.99 µM in the assay with NCI-H522 lung; 4.17 µM in the assay on T-47D breast; 27.5 µM with SF-295 CNS; 45.3 µM in the assay on NCI-H226 lung; 20.9 µM with IGROV1 ovarian. In addition, the TGI in the assay with SW-620 colon was 3.34 µM; in the assay with OVCAR-5 ovarian, 16.2 µM; in the assay with HS 578T breast it was greater than 68 µM; in the assay with MDA-MB-231 breast, 12.2 µM.
On to `COc1ccc(N2C(=O)/C(=C/c3ccc(N(CCC#N)CCC#N)cc3)N=C2c2ccccc2)c(OC)c1`, for which the TGI in the assay on 786-0 renal was greater than 100 µM; in the assay on NCI-H522 lung, 74.1 µM; with T-47D breast, 69.5 µM; in the assay on SF-295 CNS, greater than 100 µM; in the assay with NCI-H226 lung it was greater than 100 µM; with IGROV1 ovarian, greater than 100 µM. The TGI in the assay with SW-620 colon, with OVCAR-5 ovarian, in the assay with HS 578T breast and with MDA-MB-231 breast was greater than 100 µM throughout.
With `O=c1/c(=C/c2ccc(-c3ccc(Cl)cc3Cl)o2)sc2n1[C@@H](c1ccc3c(c1)OCO3)C=C(c1cc(F)c(Cl)cc1Cl)N=2`, the TGI in the assay with 786-0 renal, in the assay with NCI-H522 lung, in the assay on T-47D breast, in the assay with SF-295 CNS, with NCI-H226 lung and in the assay with IGROV1 ovarian was greater than 100 µM in each case. In addition, the TGI is greater than 100 µM in the assay with SW-620 colon, greater than 100 µM with OVCAR-5 ovarian, greater than 100 µM in the assay on HS 578T breast and 57.2 µM in the assay on MDA-MB-231 breast.
`Cc1ccc(S(=O)(=O)N2CCN(CCO)CCN(S(=O)(=O)c3ccc(C)cc3)CCN(CCO)CC2)cc1`: the TGI in the assay with 786-0 renal is 67 µM; with NCI-H522 lung, 33.2 µM; in the assay with T-47D breast it was 36.2 µM; in the assay with SF-295 CNS it was greater than 100 µM; in the assay with NCI-H226 lung, greater than 100 µM; in the assay with IGROV1 ovarian, greater than 100 µM. Also, the TGI in the assay with SW-620 colon is greater than 100 µM; in the assay with OVCAR-5 ovarian it was greater than 100 µM; in the assay with HS 578T breast, 93.4 µM; in the assay with MDA-MB-231 breast it was 48.4 µM.
